Assay results published in US20160376659A1, “Breast Cancer Biomarker” (The University of Manchester, priority 2015, published 2016).
Entries after “also recorded” stand apart in the source; their conditions may differ.

Columns and labels:
[1] = test system: Notch1; assay: Notch1 activity in MCF7, MDA-MB-231 and BT474 cells; format: cell-based
[2] = test system: Notch4; assay: Notch4 activity in MCF7, MDA-MB-231 and BT474 cells; format: cell-based

Row | Compound | Notch1 activity [1] | Notch4 activity [2]
1 | C[C@H](NC(=O)Cc1cc(F)cc(F)c1)C(=O)N[C@H](C(=O)OC(C)(C)C)c1ccccc1 [DAPT] | inhibit | no Notch4; also recorded: not NOTCH4 activity
2 | C[C@H](NC(=O)Cc1cc(F)cc(F)c1)C(=O)N[C@@H]1C(=O)N(C)c2ccccc2-c2ccccc21 [DBZ] | inhibit | no Notch4; also recorded: not NOTCH4 activity
